One test has as its system F35T cells. As to the kind of experiment: Foci reduction in FECD (CAG10-Cy3 FISH, foci per nucleus). The following applies: F35T cells, foci per nucleus, 48 h treatment; read-out: FECD EC50, 48 h. The class given is cell-based. In a few lines: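 Foci per nucleus were counted by imaging after overnight CAG10-Cy3 FISH at 37 °C (30% formamide, 2×SSC) with DAPI counterstain, on PFA-fixed, ethanol-permeabilized F35T cells. The cells, seeded at 5000 per well in supplemented Opti-MEM, had received 8-point compound dilutions for 48 h at 37 °C.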

The subject of test [1] is Myotonic Dystrophy 1 affected patient fibroblasts (Coriel GM04602; 1600 CTG repeats). Put plainly: DM1 foci reduction assay (EC50 assay; CAG10-Cy3 FISH, foci per nucleus). The class given is cell-based. The following applies: Homo sapiens, Fibroblast; DM1 patient fibroblasts, foci per nucleus, 48 h treatment; read-out: DM1 EC50, 48 h. In short, it runs like this: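 Foci per nucleus counted by 20× imaging of 4 areas per well, after overnight FISH with 5 nM CAG10-Cy3 and DAPI staining of fixed, permeabilized cells. DM1 fibroblasts (GM04602, 1600 CTG) were dosed 48 h at 37 °C, 8 points, 3-fold dilutions, 3 μM top concentration.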

From patent US20250368628A1, “METHODS AND COMPOUNDS FOR MODULATING INHERITED GENETIC DISEASES” (Design Therapeutics, Inc., priority 2022, published 2025) come the findings set out here.

pEC50: −log10 of the molar value. Where only a bound is given, the exact number is not on record here.

One may read the pEC50 as the negative decadic logarithm of the EC50, by convention in mol/L. With `CCCn1cc(NC(=O)c2nc(NC(=O)CCNC(=O)c3cc(NC(=O)c4nccn4C)cn3C)cn2C)cc1C(=O)NCCCC(=O)Nc1cn(C)c(C(=O)NCCC(=O)Nc2cc(C(=O)Nc3cn(C)c(C(=O)NCCC(=O)N4CCN(C)CC4)n3)n(C)c2)n1` [Compound B-429], the pEC50 (in the test on F35T cells; in test [1]) was greater than 7.00 in each case.
As for `CN(C)CCCn1cc(NC(=O)c2nc(NC(=O)CCNC(=O)c3cc(NC(=O)c4nccn4C)cn3C)cn2C)cc1C(=O)NCCCC(=O)Nc1cn(C)c(C(=O)NCCC(=O)Nc2cc(C(=O)Nc3cn(C)c(C(=O)NCCC(=O)N4CCCCC4)n3)n(C)c2)n1` [Compound B-430], the pEC50 (in the test with F35T cells; in test [1]) was greater than 7.00 in each case.
For `CCCNC(=O)CCNC(=O)c1nc(NC(=O)c2cc(NC(=O)CCNC(=O)c3nc(NC(=O)CCCNC(=O)c4cc(NC(=O)c5nc(NC(=O)CCNC(=O)c6cc(NC(=O)c7nccn7C)cn6C)cn5C)cn4CCCO)cn3C)cn2C)cn1C` [Compound B-431], the pEC50 (with F35T cells; in test [1]) was greater than 7.00 in each case.
For the compound `CCCNC(=O)CCNC(=O)c1nc(NC(=O)c2cc(NC(=O)CCNC(=O)c3nc(NC(=O)CCCNC(=O)c4cc(NC(=O)c5nc(NC(=O)CCNC(=O)c6cc(NC(=O)c7nccn7C)cn6C)cn5C)cn4CCCOC(=O)c4ccccc4)cn3C)cn2C)cn1C` [Compound B-432], the pEC50 (with F35T cells; in test [1]) was greater than 7.00 throughout.
Turning to `CCCCn1cc(NC(=O)c2nc(NC(=O)CCNC(=O)c3cc(NC(=O)c4nccn4C)cn3C)cn2C)cc1C(=O)NCCCC(=O)Nc1cn(C)c(C(=O)NCCC(=O)Nc2cc(C(=O)Nc3cn(C)c(C(=O)NCCC(=O)N4CCCCC4)n3)n(C)c2)n1` [Compound B-433], the pEC50 (in the test with F35T cells; in test [1]) was greater than 7.00 throughout.
In the case of `CCCNC(=O)c1nc(NC(=O)c2cc(NC(=O)CCNC(=O)c3nc(NC(=O)CC4(CNC(=O)c5cc(NC(=O)c6nc(NC(=O)CCNC(=O)c7cc(NC(=O)c8nccn8C)cn7C)cn6C)cn5C)CNC4)cn3C)cn2C)cn1C` [Compound B-439], the pEC50 (in the test with F35T cells; in test [1]) was 6.30 to 7.00 throughout.
